Source: patent US9260435B2, “Substituted imidazopyrazines as Akt kinase inhibitors” (Bayer Intellectual Property GmbH, priority 2012, dated 2016)

What was measured:
[1] = target: His-tagged human recombinant kinase full-length Akt1 (Homo sapiens (Human), UniProt P31749); experiment: Akt1 kinase assay (TR-FRET); assay type: biochemical; settings: 10 μM ATP, read-out: Akt1, median IC50
Excerpt: Biological Assay 1.0: Akt1 Kinase Assay
Akt1 inhibitory activity of compounds of the present invention was quantified employing the Akt1 TR-FRET assay as described in the following paragraphs.
His-tagged human recombinant kinase full-length Akt1 expressed in insect cells was purchased form Invitrogen (part number PV 3599). As substrate for the kinase reaction the biotinylated peptide biotin-Ahx-KKLNRTLSFAEPG (C-terminus in amide form) was used which can be purchased e.g. from the company Biosynthan GmbH (Berlin-Buch, Germany).
For the assay 50 nl of a 100 fold concentrated solution of the test compound in DMSO was pipetted into a black low volume 384 well microtiter plate (Greiner Bio-One, Frickenhausen, Germany), 2 μl of a solution of Akt1 in assay buffer [50 mM TRIS/HCl pH 7.5, 5 mM MgCl2, 1 mM dithiothreitol, 0.02% (v/v) Triton X-100 (Sigma)] were added and the mixture was incubated for 15 min at 22° C. to allow prebinding of the test compounds to the enzyme before the start of the kinase reaction. Then the kinase reaction was started by the addition of 3 μl of a solution of adenosine-tri-phosphate (ATP, 16.7 μM=>final conc. in the 5 μl assay volume is 10 μM) and substrate (1.67 μM=>final conc. in the 5 μl assay volume is 1 μM) in assay buffer and the resulting mixture was incubated for a reaction time of 60 min at 22° C. The concentration of Akt1 in the assay was adjusted depending of the activity of the enzyme lot and was chosen appropriate to have the assay in the linear range, typical enzyme concentrations were in the range of about 0.05 ng/μl (final conc. in the 5 μl assay volume).
The reaction was stopped by the addition of 5 μl of a solution of HTRF detection reagents (200 nM streptavidine-XL665 [Cisbio] and 1.5 nM anti-phosho-Serine antibody [Millipore, cat. #35-001] and 0.75 nM LANCE Eu-W 1024 labeled anti-mouse IgG antibody [Perkin Elmer]) in an aqueous EDTA-solution (100 mM EDTA, 0.1% (w/v) bovine serum albumin in 50 mM HEPES/NaOH pH 7.5).
The resulting mixture was incubated 1 h at 22° C. to allow the binding of the biotinylated phosphorylated peptide to the streptavidine-XL665 and the antibodies. Subsequently the amount of phosphorylated substrate was evaluated by measurement of the resonance energy transfer from the anti-mouse-IgG-Eu-Chelate to the streptavidine-XL665. Therefore, the fluorescence emissions at 620 nm and 665 nm after excitation at 350 nm was measured in a HTRF reader, e.g. a Rubystar (BMG Labtechnologies, Offenburg, Germany) or a Viewlux (Perkin-Elmer). The ratio of the emissions at 665 nm and at […] was taken as the measure for the amount of phosphorylated substrate. The data were normalised (enzyme reaction without inhibitor=0% inhibition, all other assay components but no enzyme=100% inhibition).

[2] = test system: phospho-AKT at S473; experiment: Cellular p-AKT1/2/3-S473 assay in KPL-4 cells; assay type: cell-based; settings: Homo sapiens, KPL4; KPL-4 breast tumour cell line, 2 hours treatment; read-out: pAKT-S743 median IC50
Procedure: The phospho-substrates of PI3K-AKT-mTOR axis were used as the readouts to reflect pathway inhibition. Cells were seeded at 60-80% confluency per well in 96-well cell culture plates. After overnight incubation at 37° C. 5% CO2, cells were treated with compounds and vehicle at 37° C. for 2 hours. […] All measurements where at least done in duplicates and confirmed by independent repetition. Alternatively pAKT-S473 was measured using the “Akt Duplex” of the MULTI-SPOT® Assay System (Fa. Meso Scale Discovery, Cat# N41100B-1) following manufacturers instructions. Each assay used 20 μg of protein extract and measured total AKT and p-AKT content simultaneously in one well. All measurements where at least done in duplicates and confirmed by independent repetition. Values for P-AKT are expressed as percentage of P-AKT level compared to total-AKT content of the extracts.

His-tagged human recombinant kinase full-length Akt1, sequence (P31749 whole entry): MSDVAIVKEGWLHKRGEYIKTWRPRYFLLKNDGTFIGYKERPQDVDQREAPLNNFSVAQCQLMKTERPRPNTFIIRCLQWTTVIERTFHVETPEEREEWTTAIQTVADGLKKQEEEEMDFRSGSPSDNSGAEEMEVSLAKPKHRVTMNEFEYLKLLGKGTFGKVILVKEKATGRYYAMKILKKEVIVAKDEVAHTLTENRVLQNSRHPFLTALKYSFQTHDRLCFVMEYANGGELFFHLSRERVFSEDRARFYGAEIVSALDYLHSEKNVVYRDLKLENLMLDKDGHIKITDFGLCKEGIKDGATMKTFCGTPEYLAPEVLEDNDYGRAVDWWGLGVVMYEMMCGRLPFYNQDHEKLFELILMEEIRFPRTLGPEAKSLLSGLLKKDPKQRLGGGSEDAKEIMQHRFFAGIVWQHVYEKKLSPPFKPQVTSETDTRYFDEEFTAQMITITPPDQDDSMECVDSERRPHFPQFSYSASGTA

Work on Cc1cn2c(-c3ccccc3)c(-c3ccc(C4(N)CCC4)cc3)nc2c(C)n1 [Example 2, 1-[4-(6,8-Dimethyl-3-phenylimidazo[1,2-a]pyrazin-2-yl)phenyl]-cyclobutanamine] yielded an IC50 [1] of 61 nM and an IC50 [2] of 27 nM.
Work on COc1nc(C(N)=O)cn2c(-c3ccccc3)c(-c3ccc(C4(N)CCC4)cc3)nc12 [Example 8, 2-[4-(1-Aminocyclobutyl)phenyl]-8-methoxy-3-phenylimidazo[1,2-a]pyrazine-6-carboxamide] yielded an IC50 [1] of 29 nM and an IC50 [2] of 7.5 nM.
With CCc1cn2c(-c3ccccc3)c(-c3ccc(C4(N)CCC4)cc3)nc2c(OC)n1 [Example 4, 1-[4-(6-Ethyl-8-methoxy-3-phenylimidazo[1,2-a]pyrazin-2-yl)phenyl]cyclobutanamine] the IC50 [1] was 110 nM and the IC50 [2] was 85 nM.
Work on COC(=O)c1cn2c(-c3ccccc3)c(-c3ccc(C4(N)CCC4)cc3)nc2c(OC)n1 [Example 7, Methyl 2-[4-(1-aminocyclobutyl)phenyl]-8-methoxy-3-phenylimidazo[1,2-a]pyrazine-6-carboxylate] yielded an IC50 [1] of 64 nM and an IC50 [2] of 44 nM.
For NC(=O)c1cn2c(-c3ccccc3)c(-c3ccc(C4(N)CCC4)cc3)nc2cn1 [Example 6, 2-[4-(1-Aminocyclobutyl)phenyl]-3-phenylimidazo[1,2-a]pyrazine-6-carboxamide], the IC50 [1] was 110 nM and the IC50 [2] was 20 nM.
COc1nc(Br)cn2c(-c3ccccc3)c(-c3ccc(C4(N)CCC4)cc3)nc12 [Example 3, 1-[4-(6-Bromo-8-methoxy-3-phenylimidazo[1,2-a]pyrazin-2-yl)phenyl]cyclobutanamine] was tested, and the IC50 [1] was 22 nM and the IC50 [2] was 190 nM.
